Reference: publication PMC6321301, “Phenolic Composition, Antioxidant Properties, and Inhibition toward Digestive Enzymes with Molecular Docking Analysis of Different Fractions from Prinsepia utilis Royle Fruits” (Molecules, 2018)
Like-named read-outs stand apart in the source and are kept apart here. Values belong to the molecule of their own block, whether it stands above or below them.

What was measured:
[1] = DPPH radical scavenging assay; settings: mean ± SD, n = 3
Protocol: The current result was consistent with many previous studies. Huang et al. reported that the phenolic compounds in P. utilis seeds were responsible for their DPPH radical scavenging activities, regardless of different pretreatments. Zhang et al. also considered phenolics to be the main bioactive substances in Rhus chinensis Mill. fruits to scavenge DPPH radicals.
The antioxidant activities of all of the fractions from P. utilis fruits were determined by DPPH assay according to the methods described earlier. The absorbance of the reaction mixture was recorded by a SpectraMax M5 microplate reader (Molecular Device, Sunnyvale, CA, USA) at 517 nm. The DPPH radical scavenging activity (%) was calculated as [(ODcontrol − ODsample)/ODcontrol] × 100. Each test was measured in triplicate.

[2] = ABTS radical scavenging assay; settings: mean ± SD, n = 3
From the text: Phenolic compounds in P. utilis fruits may be also in charge of the ABTS scavenging capacities, which were confirmed by a high Pearson’s correlation coefficient between the phenolic contents and ABTS radical scavenging ratio (r = 0.889, p < 0.01). Some discrepancies between the IC50 values of DPPH and ABTS assays of the same fraction from P. utilis fruits were observed, which may be due to the different radical structure. Many previous studies also found a similar phenomenon when the DPPH results were compared with the ABTS findings.
The antioxidant activities of all of the fractions from P. utilis fruits were measured by ABTS assay as described earlier. The absorbance of the reaction mixture was determined with a SpectraMax M5 microplate reader at 745 nm. The ABTS radical scavenging activity (%) of each sample was calculated as [(ODcontrol − ODsample)/ODcontrol] × 100. Each test was measured three times.

H2O2-induced HepG2 cells = test: Inhibition of intracellular ROS in H2O2-induced HepG2 cells (DCFH-DA, flow cytometry); type: cell-based; settings: 8.0 μg/mL, positive control; p < 0.05
Protocol: HepG2 cells were supplied by Kunming cell bank, Chinese Academy of Sciences (Kunming, China), which were cultured in normal Dulbecco’s Modified Eagle Medium (DMEM) medium containing 10% fetal bovine serum (FBS), 1% antibiotic mixture of streptomycin (100 mg/mL) and penicillin (100 U/mL) at 37 °C with a humidified 5% CO2 atmosphere. […] Briefly, cells were seeded on six-well plates at 2.0 × 10^5 cells per well, and incubated for 24 h. […] Then, cells were harvested and washed twice with phosphate buffer solution (PBS). The cells of all of the groups were incubated with 10 μM of DCFH-DA for 20 min, and washed with serum-free medium to remove excess DCFH-DA by centrifuging at 156× g for five minutes. Subsequently, the intracellular ROS of each group was measured by flow cytometry with guava® easyCyte 6-2L (Millipore, Billerica, MA, USA) within 45 min. All of the experiments were measured in triplicate.

[3] = target: T1, porcine pancreatic lipase (Sus scrofa, UniProt P00591); test: Pancreatic lipase inhibition; type: biochemical; settings: mean ± SD, n = 3
T1 construct: purchased Sigma (Sigma-Aldrich, Shanghai, China); host or cells: porcine pancreas (natural source)
T1 sequence (P00591 1-450): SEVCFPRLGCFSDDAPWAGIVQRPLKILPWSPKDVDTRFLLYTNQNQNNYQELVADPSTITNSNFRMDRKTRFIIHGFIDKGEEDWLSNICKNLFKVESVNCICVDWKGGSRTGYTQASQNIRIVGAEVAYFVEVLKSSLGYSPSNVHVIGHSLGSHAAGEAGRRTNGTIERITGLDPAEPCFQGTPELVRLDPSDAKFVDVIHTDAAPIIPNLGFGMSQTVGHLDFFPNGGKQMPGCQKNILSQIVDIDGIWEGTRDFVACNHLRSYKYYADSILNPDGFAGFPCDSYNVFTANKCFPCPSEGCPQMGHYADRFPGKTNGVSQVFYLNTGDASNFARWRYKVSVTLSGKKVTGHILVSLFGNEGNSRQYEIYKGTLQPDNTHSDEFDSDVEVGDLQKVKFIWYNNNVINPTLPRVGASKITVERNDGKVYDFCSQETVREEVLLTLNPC
Protocol: (§1) Methanol, acetonitrile, formic acid, and Folin–Ciocalteu reagent were purchased from Merck (Darmstadt, Germany). […] All of the other reagents that were used were of analytical grade.
The inhibitory effects of different fractions from P. utilis fruits, rutin, isorhamnetin-3-O-glucoside, and cyanidin-3-O-glucoside against pancreatic lipase activity were measured according to the method reported earlier. The absorbance (OD) was measured at 400 nm by using a SpectraMax M5 microplate reader. Each test was measured three times.

[4] = target: T2, α-glucosidase from Saccharomyces cerevisiae (Saccharomyces cerevisiae, UniProt P53341); test: α-Glucosidase inhibition; type: biochemical
T2 construct: purchased Sigma (Sigma-Aldrich, Shanghai, China); host or cells: Saccharomyces cerevisiae (natural source, as named)
Protocol: as §1
The α-glucosidase inhibition activities of different fractions from P. utilis fruits, rutin, and isorhamnetin-3-O-glucoside were evaluated as previously described with some modifications. The absorbance (OD) of the each reaction mixture at 405 nm was recorded by using a SpectraMax M5 microplate reader (Molecular Device, Sunnyvale, CA, USA).

α-glucosidase = settings: cited from earlier work
[5] = cited from earlier work
[6] = cited from earlier work; remark: listed apart in the source

T2 sequence (P53341 whole entry): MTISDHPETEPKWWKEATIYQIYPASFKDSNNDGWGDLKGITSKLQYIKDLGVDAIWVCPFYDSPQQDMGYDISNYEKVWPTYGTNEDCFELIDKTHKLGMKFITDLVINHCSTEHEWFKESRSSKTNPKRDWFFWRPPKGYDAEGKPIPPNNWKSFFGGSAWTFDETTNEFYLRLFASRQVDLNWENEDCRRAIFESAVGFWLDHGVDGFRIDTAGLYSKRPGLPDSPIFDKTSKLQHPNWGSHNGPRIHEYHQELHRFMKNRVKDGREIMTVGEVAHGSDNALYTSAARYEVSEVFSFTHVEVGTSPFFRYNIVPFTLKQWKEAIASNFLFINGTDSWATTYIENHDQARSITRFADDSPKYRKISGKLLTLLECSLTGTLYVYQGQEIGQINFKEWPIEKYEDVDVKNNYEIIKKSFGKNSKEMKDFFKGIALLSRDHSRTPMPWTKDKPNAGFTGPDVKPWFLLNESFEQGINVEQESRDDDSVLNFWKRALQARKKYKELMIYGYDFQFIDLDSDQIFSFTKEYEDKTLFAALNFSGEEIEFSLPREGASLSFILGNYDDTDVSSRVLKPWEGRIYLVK

DPPH radical scavenging IC50 [1]: 2.32 ± 0.11 µg/mL
ABTS radical scavenging IC50 [2]: 1.92 ± 0.21 µg/mL
SMILES: O=C1O[C@H]([C@@H](O)CO)C(O)=C1O [Vc, ascorbic acid]
intracellular ROS generation (H2O2-induced HepG2 cells): significantly inhibited intracellular ROS generation

SMILES: COc1cc(-c2oc3cc(O)cc(O)c3c(=O)c2O[C@@H]2O[C@H](CO[C@@H]3O[C@@H](C)[C@H](O)[C@@H](O)[C@H]3O)[C@@H](O)[C@H](O)[C@H]2O)ccc1O [Isorhamnetin-3-O-rutinoside]
pancreatic lipase inhibition IC50 [3]: 237.87 ± 8.20 µg/mL
α-glucosidase inhibition IC50 ([4]; mean ± SD, n = 3): 90.19 ± 3.27 µg/mL

SMILES: O=C(O[C@@H]1Cc2c(O)cc(O)cc2O[C@H]1c1cc(O)c(O)c(O)c1)c1cc(O)c(O)c(O)c1 [gallocatechin gallate]
manner of α-glucosidase inhibition (α-glucosidase): noncompetitive
α-glucosidase inhibition IC50 (α-glucosidase): 30.02 µg/mL

SMILES: C[C@@H]1O[C@@H](OC[C@H]2O[C@@H](Oc3c(-c4ccc(O)c(O)c4)oc4cc(O)cc(O)c4c3=O)[C@H](O)[C@@H](O)[C@@H]2O)[C@H](O)[C@H](O)[C@H]1O [Rutin]
IC50 [3]: 289 µM
IC50 [4]: 208 µM
DPPH radical scavenging IC50 [5]: 29.63 µg/mL
ABTS radical scavenging IC50 [6]: 5.34 µg/mL

SMILES: O=C(CCc1ccc(O)cc1)c1c(O)cc(O)cc1O [phloretin]
α-glucosidase inhibition IC50 (α-glucosidase): 31.26 µg/mL
manner of α-glucosidase inhibition (α-glucosidase; reversible): mixed-type

pancreatic lipase inhibition IC50 [3]: 249.20 ± 3.87 µg/mL
SMILES: OC[C@H]1O[C@@H](Oc2cc3c(O)cc(O)cc3[o+]c2-c2ccc(O)c(O)c2)[C@H](O)[C@@H](O)[C@@H]1O [Cyanidin-3-O-glucoside]
